Assay results: patent US20120134974A1, “METHODS FOR REMOVING PLASMA” (BIOVEC TRANSFUSION, LLC, priority 2010, published 2012)

Key:
[1] = system: platelets; experiment: thromboelastography (TEG) of platelet concentrate; type: cell-based; details: 2.4 mg Argatroban in 350 ml of platelets; straight line on the thromboelastogram
Procedure: In one experiment, platelet concentrates obtained by the buffy coat method were used for the study. Integrilin (Eptifibatide), a GPIIb/IIIa inhibitor, and Argabotran, a synthetic thrombin inhibitor, were added to platelet units at three times the therapeutic concentrations (i.e., 48 micrograms of Integrilin and 2.4 mg of Argatroban in 350 ml of platelets). Removal of the inhibitors was initiated by diafiltration. 15 ml of the platelet concentrate was diafiltered against 60 ml of a solution containing 20% fresh frozen plasma in a commercially used platelet storage solution (T-Sol). The samples were stored overnight and platelet functionality was measured on Day 2, by Thromboelastography (TEG) and using standard agonists such as TRAP and collagen.
In another experiment, Integrilin and Argabotran were added to platelet units at three times the therapeutic loading concentrations (i.e., 48 micrograms for Integrilin and 2.4 mg for Argatroban in 350 ml of platelets). Prior to the addition of the inhibitors, baseline data of platelet functionality was obtained. These baseline data included thromboelastography, which assesses overall platelet function and clot strength, as well as the TRAP test and the collagen test, which are additional markers of platelet functionality. […]

[2] = target: factor Xa (Homo sapiens, UniProt P00742); details: cited from earlier work
factor Xa, sequence (P00742 235-488 limits assumed): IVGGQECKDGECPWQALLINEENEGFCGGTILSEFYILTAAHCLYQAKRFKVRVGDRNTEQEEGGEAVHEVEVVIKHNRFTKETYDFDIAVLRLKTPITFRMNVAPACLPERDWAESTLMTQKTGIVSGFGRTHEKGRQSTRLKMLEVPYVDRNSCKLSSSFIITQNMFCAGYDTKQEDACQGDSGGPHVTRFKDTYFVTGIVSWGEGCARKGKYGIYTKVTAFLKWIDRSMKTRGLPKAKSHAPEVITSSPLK
factor Xa, sequence (P00742 41-179 partner limits assumed): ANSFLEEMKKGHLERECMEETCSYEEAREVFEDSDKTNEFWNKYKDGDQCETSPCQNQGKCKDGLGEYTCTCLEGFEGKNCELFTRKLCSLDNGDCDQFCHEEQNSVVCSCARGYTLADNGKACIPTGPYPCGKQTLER

[3] = system: PT and αPTT; details: more sensitive to the αPTT; cited from earlier work

For `CC1CNc2c(cccc2S(=O)(=O)N[C@@H](CCCNC(=N)N)C(=O)N2CC[C@@H](C)C[C@@H]2C(=O)O)C1` (stereo partly shown) [Argatroban], the “effect on activation of platelets on the thromboelastogram” value [1] was “completely blocks the activation of platelets”.
For `COc1ccc2ccc(S(=O)(=O)N(C)[C@H]3CCN(Cc4csc(C(=N)N)c4)C3=O)cc2c1` [RPR-120844], the “mode of factor Xa inhibition” value [2] is given as “fast binding, reversible and competitive inhibitor” and the “effect on PT and αPTT” value [3] is given as “prolongs the PT and αPTT in a concentration-dependent manner”.
For `CC(=N)N1CC[C@H](Oc2ccc([C@H](Cc3ccc4ccc(C(=N)N)cc4c3)C(=O)O)cc2)C1` [DX-9065a], the “mode of factor Xa inhibition” value [2] is given as “competitive manner”.
